Measurements as given in article PMC10115881, “Disrupting the α-synuclein-ESCRT interaction with a peptide inhibitor mitigates neurodegeneration in preclinical models of Parkinson’s disease” (Nature Communications, 2023).

Experiments:
Δa-syn(103–140) = assay: Truncated a-syn (103-140 lacking) HA immunofluorescence in rat cortical neurons; type: cell-based; settings: a-syn lacking amino acids 103–140
Excerpt: Adeno-associated virus (AAV) of a 1/2 serotype was used to express A53T a-syn (AAV-A53T), a truncated version of A53T a-syn lacking amino acids 103–140 (Δa-syn(103–140)), and WT a-syn, fused to either the N-terminal half of YFP (AAV-V1S) or the C-terminal half of YFP (AAV-SV2), all under the control of the CAG promoter, a hybrid of the chicken beta-actin (CBA) promoter fused with the cytomegalovirus (CMV) immediate early enhancer sequence (GeneDetect Ltd.)[46].
Pregnant rats (E17) of the Sprague-Dawley strain were purchased from Envigo. Embryos were surgically removed from the mothers and cortices dissected in Hanks Balanced salt solution (Gibco). […]
After fixation, cells were permeabilized with 0.2% Triton-X-100 for 15 min, washed three times with PBS and then incubated with blocking solution (1% BSA, 22.52 mg/mL glycine, 0.1% Tween-20 in PBS or 0.4% saponin, 1% BSA, and 5% goat or donkey serum in PBS) for 1 h. […] Following another three washes with PBS, nuclei were counterstained with DAPI (ThermoFisher) and then coverslips were mounted on slides using Dako fluorescence mounting medium (Agilent) and sealed using clear nail varnish.

CD63 = CD63 levels in HEK293 cells; type: cell-based, human; settings: A53T a-syn
Description: Infected or transfected cells were scraped from six-well dishes and lysed with lysis buffer (50 mM Tris-HCl pH 7.4, 1% Nonidet P-40, 150 mM NaCl, 1 mM EDTA, 1× protease inhibitor mixture (Sigma)) for 30 min at 4 °C. The insoluble pellet was removed following a 10,000 rpm spin for 5 min at 4 °C. Lysates were analyzed by SDS-PAGE/immunoblot using 4–20% Mini-PROTEAN Tris-glycine gels (Bio-Rad), transferred to polyvinylidene fluoride (PVDF) membranes, and blocked in 5% milk containing PBS-Tween-20 (0.1%) for 1 h. PVDF membranes were then incubated with specified primary antibodies followed by incubation with horseradish peroxidase-conjugated secondary antibodies (anti-mouse HRP-linked, Cell Signaling, catalog #7076, 1:5000; anti-rabbit HRP-linked, Cell Signaling, catalog #7074, 1:5000) and detected using enhanced chemiluminescence (GE Healthcare). Anti-a-syn antibody (clone 42) was obtained from BD Biosciences (catalog #610787, 1:1000). Anti-LAMP1 antibody was obtained from Abcam (catalog #ab24170, 1:500). Anti-beta-actin antibody was obtained from Cell Signaling (13E5) (catalog #4970, 1:1000). Anti-CD63 antibody was obtained from R&D Systems (catalog #MAB50482-SP, 1:1000).

[1] = tested on: LC3-HiBiT reporter in HEK293 cells; assay: Autophagy flux assay (LC3-HiBiT reporter), HEK293 cells; type: cell-based, human
Excerpt: Autophagic flux was quantitatively measured with the Autophagy LC3-HiBiT Reporter Assay System which was purchased from Promega (GA1040) and used according to the manufacturer’s instructions. When autophagy is induced, the cytosolic LC3-I fusion protein is recruited to phagophores where it becomes conjugated to phosphatidylethanolamine to form LC3-II. Upon phagophore membrane elongation and closure to form the mature autophagosome, a significant fraction of tethered LC3 protein becomes captured within the lumen together with various cargo. Subsequently, autophagosomes fuse with lysosomes to form autolysosomes, leading to the ultimate degradation of both cargo and the captured LC3 reporter protein. Thus, changes in the total level of the LC3 reporter protein can be used to monitor changes in autophagic flux. HEK293 cells (ATCC, CRL-1573) stably expressing the LC3-HiBiT reporter were trypsinized from subconfluent culture and seeded in a 10 cm plate at a density of 3.0 × 10^6 per plate. Cells were incubated overnight at 37 °C in 5% CO2. Cells were transfected with FLAG-peptide plasmids in combination with pcDNA or A53T a-syn plasmids. After 24 h, cells were trypsinized and seeded in triplicate in a white flat-bottomed 96-well plate at a density of 20,000 cells per well. Cell medium was replaced the next day with fresh medium containing DMSO, Rapamycin, or Bafilomycin A1 and incubated for 24 h at 37 °C with 5% CO2. 80 µL of Working prewarmed Nano-Glo® HiBiT lytic buffer containing HiBiT substrate and LgBit protein (N3030) were added to each well containing 20 µL of cell medium and left to incubate on a rocker for 10 min. Samples were read using a luminometer with a 480 nm filter with measured RLU being directly proportional to HiBiT-conjugated LC3.

DEEIERQLKALG [PDpep1.3]
Effect on truncated a-syn levels (Δa-syn(103–140)): did not reduce levels of this truncated a-syn | Effect on CD63 levels (CD63): return of CD63 | Effect on autophagic flux [1]: neither A53T a-syn nor PDpep1.3 altered autophagic flux
